Tested on: freshly isolated human peripheral blood cells
Assay: Seahorse oxygen consumption rate (OCR)
Type: cell-based
Conditions: average
Experimental: Testing was performed using Seahorse technology in order to measure real-time changes in oxygen consumption by freshly isolated human peripheral blood cells.
All results were generated on freshly isolated blood cells from different and randomly selected healthy and fasted donors. […] These two values were used as positive and negative controls, respectively, in order to ensure quality of test, viability and metabolic functionality of fresh human blood cells. Oligomycin inhibits oxygen metabolism. In presence of this substance, cells generate ATP/energy mainly via glycolysis. […] To ensure quality of human blood cells, blood was collected directly into Cell Preparation Tube with Sodium Citrate, Becton Dickinson Inc. Peripheral blood cells were isolated during 45 minutes following Protocol provided by Becton Dickinson. Blood cells were cultivated during each experiment in Seahorse media supplemented with 5 mM of glucose. Glucose concentration was adjusted from 11 mM to 5 mM to avoid testing of samples under hyperglycemic conditions (typically glucose at concentration lower than 95 mg/dl).
Cells were isolated from healthy fasted subject, and treated with apple extract at indicated dose. […] Rate 7, 8 and 14 represent time-points: 4, 8 and 32 minutes after the treatment, respectively.

Row | SMILES | inhibition of OCR (negative control) | increase in OCR (positive control)
1 | CC[C@H]1/C=C/C=C/C[C@@H](C)[C@H](O)[C@@](C)(O)C(=O)[C@@H](C)[C@H](O)[C@@H](C)C(=O)[C@@H](C)[C@H](O)[C@@H](C)/C=C/C(=O)O[C@@H]2[C@H](C)[C@H](CC1)O[C@]1(CC[C@H](C)[C@H](C[C@@H](C)O)O1)[C@H]2C [oligomycin] | 86% | 
2 | N#CC(C#N)=NNc1ccc(OC(F)(F)F)cc1 [FCCP] |  | 397%
